The values below come from patent US20220168276A1, “Mehods and Compositions for Treating SARS-CoV-2 Infection using Carboxyamidotriazole Orotate” (priority 2020, published 2022).

“Also recorded” adds a separate entry of the source.

Data set [1] deals with non-infected Vero E6 cells. Format: cell-based. To be noted: cell viability, read-out: EC 50 in non-infected Vero E6 cells.
In data set [2] the test system is SARS-CoV-2. To be noted: Vero E6 cells.
In the next data set the test system is Cytokines in plasma. Briefly: Phase I trial of CTO in cancer patients: plasma cytokine levels by Milliplex/Luminex panel. Format: in vivo, human. Also on record: key to GM-CSF plasma level / IFNα2 plasma level / IFNγ plasma level / IL-10 plasma level / IL-12p40 plasma level / IL-12p70 plasma level / IL-13 plasma level / IL-15 plasma level / IL-17A plasma level / IL-1RA plasma level / IL-2 plasma level / IL-4 plasma level / IL-6 plasma level / IL-8 plasma level / IP-10 plasma level / MIP1a plasma level / RANTES plasma level / IL-1β plasma level / TNFα plasma level / VEGF plasma level / EGF plasma level: + increased; − decreased. How it is done:
Such an approach described above is based on unexpected findings when CTO was given to cancer patients who volunteered to participate in Phase I clinical studies of CTO to establish its safety and tolerability.
In a Phase I trial of CTO testing the safety and tolerability of CTO in cancer patients, Plasa samples were obtained from three patients after administration of different doses of CTO daily as follows: 1) NSCLC Patient 002-46 (CTO 555 mg/m2), 2) NSCLC Patient 002-50 (CTO 427 mg/m2) and 3) Ovarian Cancer Patient 002-53(CTO 427 mg/m2) The levels of cytokines were measured by using the HCYTMAG-60K-PX30/Milliplex MAP Human Cytokine/Chemokine Magnetic Bead Panel from Milliplex, USA.

Data set [3] deals with SARS-CoV-2. The class given is in vivo. To be noted: one patient, 600 mg daily oral, second day.
The subject of data set [4] is Akt and Erk1/2 phosphorylation. To be noted: exosomes stimulated HUVEC cell; cited from earlier work.
The conditions of data set [5]: cited from earlier work.
For data set [6], the system named is imatinib mesylate-resistant chronic myeloid leukemia cells. To be noted: by down-regulating bcr-abl; cited from earlier work.
For data set [7] the following is noted: in vivo; cited from earlier work.
Another data set relates to human T-cells. To be noted: cited from earlier work.
[8] abbreviates: cancer patients, CTO 427-555 mg/m2 daily, vs baseline.

What is called IC50 is the concentration at which inhibition is half-maximal. As to `NC(=O)c1nnn(Cc2cc(Cl)c(C(=O)c3ccc(Cl)cc3)c(Cl)c2)c1N.O=C(O)c1cc(=O)[nH]c(=O)[nH]1` [CTO, 5-amino-1-(4-(4-chlorobenzyl)-1,2,3-triazole-4-carboxamide orotate], the EC50 in [1] came to 14.9 µM. The half-inhibitory concentration (IC50) in the data set on SARS-CoV-2 [2] (read-out: IC50, cytopathic effect (CPE) for SARS-CoV-2, 72 hours post-inoculation, 20 μM highest dose tested) was above 20 µM.

As to `NC(=O)c1nnn(Cc2cc(Cl)c(C(=O)c3ccc(Cl)cc3)c(Cl)c2)c1N.O=C(O)c1cc(=O)[nH]c(=O)[nH]1` [CTO], in the data set with Cytokines in plasma (setting [8]), the EGF plasma level entry is “EGF- (+)”, the GM-CSF plasma level entry is “GM-CSF- (−)”, the IFNα2 plasma level entry is given as “IFNα2- (+)” and the IFNγ plasma level result is “IFNγ- (−)”. Besides, in the data set with Cytokines in plasma (setting [8]), the IL-1RA plasma level result is on record as “IL-1RA- (−)”, the IL-1β plasma level result is “**IL-1β- (−)”, the IL-2 plasma level entry is reported as “IL-2- (−)” and the IL-4 plasma level entry is “IL-4- (−)”. Further, in the data set with Cytokines in plasma (setting [8]), the IL-6 plasma level entry was “IL-6- (−)”, the IL-8 plasma level entry is reported as “IL-8-(−)”, the IL-10 plasma level entry was “IL-10- (+)” and the IL-12p40 plasma level result was “IL-12p40- (+)”. In the data set on Cytokines in plasma (setting [8]), the IL-12p70 plasma level result is “IL-12p70- (−)”, the IL-13 plasma level result is recorded as “IL-13-(−)”, the IL-15 plasma level result is “IL-15- (−)” and the IL-17A plasma level result is “IL-17A- (−)”. In the data set with Cytokines in plasma (setting [8]), the IP-10 plasma level result is given as “IP-10- (−)”, the MIP1a plasma level entry was “MIP1a- (−)”, the RANTES plasma level result is “RANTES- (+)” and the TNFα plasma level result was “**TNFα- (−)”. In addition, the VEGF plasma level result with Cytokines in plasma (setting [8]) is given as “VEGF- (−)”. Besides, the “levels of cytokines including EGF, IFN α2, IL-10, IL-12p40” value with Cytokines in plasma (plasma, CTO 427 mg/m2 to 555 mg/m2) is recorded as “increase”. In addition, the “levels of several cytokines including VEGF, GM-CSF, INF-γ, IL-2, IL-12p70, IL-13, IL-15, IL-17a, IL-1RA, IL-1α, IL-2, IL1-4, IL-6, IL-8, il-10, MIP1-α, IL-1β, TNF-α” value in the data set on Cytokines in plasma (plasma, CTO 427 mg/m2 to 555 mg/m2, forty-eight hours interval after CTO, vs baseline) was “reduced; also recorded: reduction”. In addition, the COVID-19 symptoms result with SARS-CoV-2 [3] is listed as “great improvement in most of the symptoms”. Moreover, in the data set on SARS-CoV-2 [3] (lost twelve pounds before treatment), the body weight entry is given as “remained at constant weight”. Moreover, the “Akt and Erk1/2 phosphorylation” value in data set [4] is listed as “inhibits”. Moreover, the “concentration up to which CTO inhibited replication of SARS-CoV-2” value in the data set with SARS-CoV-2 [2] was “up to 5 μM”. Also, the cell viability entry in the data set with SARS-CoV-2 [2] (CTO up to 5 μM) is on record as “above 90%”. In the data set with SARS-CoV-2 [2] (recorded <20 μM concentration), the “Maximum % Inhibition of CPE” value was determined as 29.03%.

Turning to `NC(=O)c1nnn(Cc2cc(Cl)c(C(=O)c3ccc(Cl)cc3)c(Cl)c2)c1N` [CAI, carboxyamidotriazole], the “colitis scored macroscopically and microscopically” value in [5] (animals) is reported as “inhibited”. In data set [5] (in vivo), the NF-kB activation result is recorded as “prevented” and the “production of fibrinogenic cytokine transforming growth factor β” value is reported as “inhibited”. In addition, the “production of TNF-α, IL-1β and IL-6” value in [5] (serum, supernatant of peritoneal macrophages and lamina propria) is “inhibited”. Moreover, the apoptosis result in data set [6] was “induces apoptosis”. Besides, in [7], the “TNF-α and IL-1β at the site of inflammation and in serum” value is recorded as “decreased”; the “vascular permeability stimulated by VEGF or histamine” value was “inhibited”. Further, in the data set with human T-cells, the “calcium influx and HIV LTR transcription dependent on it” value is listed as “modulated”.
